# Data published in patent US20050037990A1, “Disubstituted 7,9-guanines halides as telomerase inhibitors” (priority 2001, published 2005).
# Molecular target: T1, telomerase enzyme (Homo sapiens, UniProt O14746)
# T1 construct: telomerase enzyme diluted in a buffer
# Test: Flash Plate-based telomerase assay
# Assay type: biochemical
# Conditions: telomerase inhibition; two hours of incubation at 37°; Flash Plate hybridization readout
# Excerpt: The telomerase activity of the compounds of the invention has been evaluated using a Flash Plate-based assay. […] Other methods for determining the inhibitory concentration of a compound of the invention against telomerase can be employed as will be apparent to a person skilled in the art based on the disclosure herein.
# Briefly, the assay mixture is costituted by: • telomerase enzyme diluted in a buffer, the composition of which has been selected to maintain the enzyme activity stable along the duration of the assay. • dNTPs, deoxynucleotides 5′-triphosphate. • biotynilated oligo as primer. • increasing concentrations of test compounds/positive control.
# After two hours of incubation at 37° degrees the telomeric repeats added are evaluated by hybridization in solution with a 3′-labeled short oligonucleotide probe.
# The extent of hybridization is then quantitated by transferring the reaction mixture in a streptavidin-coated flash plate, where the binding between biotin and streptavidin occurs.
# The telomerase activity is proportional to the radioactivity measured and the inhibitory activity of the compounds is evaluated as IC50 using the Sigma Plot fit program.
# With the above-described method, IC50 values of the compounds of the present invention were determined.
# T1 sequence (O14746 whole entry): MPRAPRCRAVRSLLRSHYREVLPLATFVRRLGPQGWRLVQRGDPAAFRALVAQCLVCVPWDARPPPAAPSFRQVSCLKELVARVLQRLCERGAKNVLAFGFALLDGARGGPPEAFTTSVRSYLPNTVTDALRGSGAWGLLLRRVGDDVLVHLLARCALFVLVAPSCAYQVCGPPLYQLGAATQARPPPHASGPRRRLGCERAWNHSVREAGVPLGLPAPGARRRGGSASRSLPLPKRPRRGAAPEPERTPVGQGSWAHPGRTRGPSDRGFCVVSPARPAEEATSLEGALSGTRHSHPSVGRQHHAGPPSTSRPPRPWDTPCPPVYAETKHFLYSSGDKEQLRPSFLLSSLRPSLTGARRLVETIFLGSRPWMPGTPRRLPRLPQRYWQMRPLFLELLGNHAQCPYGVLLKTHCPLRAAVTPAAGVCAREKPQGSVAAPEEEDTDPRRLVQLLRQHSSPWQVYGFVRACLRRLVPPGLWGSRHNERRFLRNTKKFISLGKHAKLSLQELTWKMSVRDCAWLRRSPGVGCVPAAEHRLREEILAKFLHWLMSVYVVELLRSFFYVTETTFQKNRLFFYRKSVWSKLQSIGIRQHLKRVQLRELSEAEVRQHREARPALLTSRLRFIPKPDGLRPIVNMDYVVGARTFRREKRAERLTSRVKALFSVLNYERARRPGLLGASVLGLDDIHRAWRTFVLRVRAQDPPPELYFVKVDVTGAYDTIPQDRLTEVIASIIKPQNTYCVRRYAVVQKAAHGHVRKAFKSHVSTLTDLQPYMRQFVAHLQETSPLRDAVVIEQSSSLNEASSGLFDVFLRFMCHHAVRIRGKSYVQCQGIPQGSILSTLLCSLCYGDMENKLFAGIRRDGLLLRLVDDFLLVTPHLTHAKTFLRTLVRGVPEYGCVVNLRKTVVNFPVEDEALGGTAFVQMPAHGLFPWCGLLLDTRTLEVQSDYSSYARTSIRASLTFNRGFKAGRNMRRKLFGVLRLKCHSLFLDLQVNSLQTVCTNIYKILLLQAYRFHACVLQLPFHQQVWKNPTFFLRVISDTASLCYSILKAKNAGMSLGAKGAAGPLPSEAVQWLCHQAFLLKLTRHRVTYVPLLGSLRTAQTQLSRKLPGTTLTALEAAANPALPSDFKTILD
row,Structure (SMILES),IC50 [µM]
1,"Nc1nc2c(c(=O)[nH]1)[n+](Cc1ccc(-c3ccccc3)cc1)cn2Cc1ccc(-c2ccccc2)cc1 [Compound 2, 2-amino-7,9-bis[(1,1′-biphenyl)-4-ylmethyl]-6-oxo-6,9-dihydro-1H-purin-7-ium bromide]",3
2,"Nc1nc2c(c(=O)[nH]1)[n+](Cc1ccc(Cl)c(Cl)c1)cn2Cc1ccc(Cl)c(Cl)c1 [Compound 4, 2-amino-7,9-bis(3,4-dichlorobenzyl)-6-oxo-6,9-dihydro-1H-purin-7-ium bromide]",10
3,"Nc1nc2c(c(=O)[nH]1)[n+](Cc1ccc(-c3ccccc3)cc1)cn2Cc1ccc2ccccc2c1 [Compound 7, 2-amino-7-([1,1′-biphenyl]-4-ylmethyl)-9-(2-naphthylmethyl)-6-oxo-6,9-dihydro-1H-purin-7-ium bromide]",4
4,"Nc1nc2c(c(=O)[nH]1)[n+](Cc1ccc3ccccc3c1)cn2Cc1ccc2ccccc2c1 [Compound 1, 2-amino-7,9-bis(2-naphthylmethyl)-6-oxo-6,9-dihydro-1H-purin-7-ium bromide]",10
